Measurements published in patent publication US20190151210A1, “METHOD AND COMPOSITION FOR TREATING SKIN CONDITIONS” (L'OREAL, priority 2016, published 2019).
Values joined by “and” are separate entries in the source; they are usually repeats but may differ in a detail not shown here. Identical values can stand only once.

Experiment: solubility of active ingredients in base oil composition
Assay type: physicochemical
Details: for Loading (wt %), soluble in base oil composition: loading not marked with *
Excerpt: The booster compositions described above include the active ingredients noted specifically for the categorical skin condition (e.g., skin brightness, skin wrinkles, visibility of pores, skin texture, and/or skin redness). In addition, the compositions cosolubilize to permit easy dispersion of the booster composition into the base oil composition. In addition to easy dispersion, the system according to the present disclosure ensures rapid homogeneity of the final products after combination of booster and base components by the consumer. In each of the booster compositions, at least one of the ingredients in the base oil composition are included in the booster compositions. For example, in one embodiment, squalane is included in each of the booster compositions. In one particularly advantageous embodiment, greater than about 20% or greater than about 25% or greater than about 30% or greater than about 35%, by weight of total composition squalane is included in each of the booster compositions. Visual assessment may be conducted to ensure cosolubility. For example, cosolubility may be determined by visual determination of incompatibility, immicible components, precipitates or other visual indicators indicating a lack of cosolubility.

Loading (wt %), soluble in base oil composition | Loading (wt %), insoluble in base oil composition (loading marked * = Insoluble) | SMILES
40% wt % and 50% wt % and 60% wt % |  | CCCCCCCCC(CCCCCC)C(=O)OC[C@H](OC(=O)C(CCCCCC)CCCCCCCC)[C@H]1OC(=O)C(OC(=O)C(CCCCCC)CCCCCCCC)=C1OC(=O)C(CCCCCC)CCCCCCCC (stereo partly shown) [Ascorbyl Tetraisopalmitate]
5% wt % and 10% wt % and 15% wt % |  | CC(c1ccccc1)c1ccc(O)cc1O (stereo not shown) [Phenylethyl Resorcinol]
3% wt % | 5%* wt % and 10%* wt % and 15%* wt % | O=C(O)c1ccccc1O [Salicylic Acid]
